These results are taken from patent US9969746B2, “Opioid compounds and their uses” (THE UNIVERSITY OF BATH, priority 2013, dated 2018).

Series [1] addresses T1, MOP (Homo sapiens, UniProt P35372).
T1 construct: expressed in transfected cells; host or cells: CHO cells (membranes)
Description: [35S]GTPγS binding, MOP. As to conditions: 1 h; read-out: % stim MOP. It is filed as biochemical. As for the experimental part:
(§1) [^35S]GTPγS binding was conducted basically as described by Traynor and Nahorski (Traynor et al., 1995). Cells were scraped from tissue culture dishes into 20 mM Hepes, 1 mM EDTA, then centrifuged at 500×g for 10 min. Cells were resuspended in this buffer and homogenized using a Polytron Homogenizer. The homogenate was centrifuged at 27,000×g for 15 min, and the pellet re suspended in Buffer A, containing: 20 mM Hepes, 10 mM MgCl2, 100 mM NaCl, pH 7.4. The suspension was re centrifuged at 27,000×g and suspended once more in Buffer A. For the binding assay, membranes (8-15 μg protein) were incubated with [^35S]GTPγS (50 pM), GDP (10 μM), and the appropriate compound, in a total volume of 1.0 ml, for 60 min at 25′C. Samples were filtered over glass fiber filters and counted as described for the binding assays. Statistical analysis was conducted using the program Prism®.

The target of series [2] is T2, NOP (Homo sapiens, UniProt P41146).
T2 construct: expressed in transfected cells; host or cells: CHO cells (membranes)
T2 sequence (P41146 whole entry): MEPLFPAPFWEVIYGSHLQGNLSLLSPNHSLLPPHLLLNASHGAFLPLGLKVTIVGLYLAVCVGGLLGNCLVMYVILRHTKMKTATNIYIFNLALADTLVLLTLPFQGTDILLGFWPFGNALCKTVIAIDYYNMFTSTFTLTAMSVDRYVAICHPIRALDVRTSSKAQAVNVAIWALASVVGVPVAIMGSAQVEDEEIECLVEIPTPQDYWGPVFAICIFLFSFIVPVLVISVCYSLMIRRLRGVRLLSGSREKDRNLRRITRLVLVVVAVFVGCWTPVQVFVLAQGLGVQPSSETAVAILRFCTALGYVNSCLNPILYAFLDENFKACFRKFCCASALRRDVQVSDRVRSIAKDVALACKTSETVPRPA
Briefly: Binding affinity to human NOP receptor transfected into CHO cells ([3H]N/OFQ).

The target in series [3] is T2, NOP. Briefly: [35S]GTPγS binding, NOP. It counts as biochemical. As to conditions: 1 h; read-out: % stim NOP. The protocol:
as §1
For orientation: GTPγS resists hydrolysis and so accumulates on activated G proteins.

Series [4] has as its target T1, MOP. Description: biochemical. It counts as binding. The note with it: [3H]DAMGO, membranes of CHO cells with human receptor.
The target in another series is T3, KOP (Homo sapiens, UniProt P41145).
T3 construct: expressed in transfected cells; host or cells: CHO cells (membranes)
T3 sequence (P41145 whole entry): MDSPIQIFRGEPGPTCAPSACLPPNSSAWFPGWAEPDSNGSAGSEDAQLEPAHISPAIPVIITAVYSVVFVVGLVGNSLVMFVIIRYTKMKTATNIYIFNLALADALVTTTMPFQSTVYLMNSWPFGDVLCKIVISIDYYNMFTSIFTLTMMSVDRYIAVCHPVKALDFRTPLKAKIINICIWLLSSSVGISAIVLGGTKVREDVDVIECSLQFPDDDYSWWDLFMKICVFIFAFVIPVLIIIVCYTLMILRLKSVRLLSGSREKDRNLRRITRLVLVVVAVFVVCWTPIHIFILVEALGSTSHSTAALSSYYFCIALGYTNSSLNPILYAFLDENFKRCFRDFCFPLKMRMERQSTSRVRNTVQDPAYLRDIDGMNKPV
Briefly: biochemical. It counts as binding. The note with it: [3H]U69593, membranes of CHO cells with human receptor.

The subject of series [5] is rhesus monkeys. Description: Antinociception against acute noxious stimulus (50° C. water). It counts as in vivo. The source says: (§2) These findings illustrate the safe and favorable profile of 11.
For the next series, the target named is T4, KOPr (Homo sapiens, UniProt P41145).
T4 construct: expressed in transfected cells
T4 sequence (P41145 whole entry): as above
Briefly: [35S]GTPγS binding, KOPr. It counts as biochemical. The protocol:
as §1

Series [6] has as its system rhesus monkeys. Briefly: Operant responding assay (self-administration). It is filed as in vivo.
Excerpt: as §2

Series [7] deals with rhesus monkeys. Briefly: Physiological functions of monkeys (respiration, heart rate, blood pressure). It is filed as in vivo. As to conditions: 0.01 mg/kg s.c.
Excerpt: as §2

The subject of series [8] is rhesus monkeys. Briefly: Scratching responses and sedation after intrathecal administration. It counts as in vivo. As to conditions: intrathecal 3 μg.
Excerpt: as §2

The test system of series [9] is carrageenan-induced thermal hyperalgesia. Briefly: Carrageenan-induced thermal hyperalgesia (paw withdrawal latency). It is filed as in vivo. The protocol:
Compound 11 was tested for its effect on carrageenan-induced thermal hyperalgesia measured by paw withdrawal latency (FIG. 1a) and anti-hyperalgesic effect (FIG. 1b).

T1 sequence (P35372 whole entry): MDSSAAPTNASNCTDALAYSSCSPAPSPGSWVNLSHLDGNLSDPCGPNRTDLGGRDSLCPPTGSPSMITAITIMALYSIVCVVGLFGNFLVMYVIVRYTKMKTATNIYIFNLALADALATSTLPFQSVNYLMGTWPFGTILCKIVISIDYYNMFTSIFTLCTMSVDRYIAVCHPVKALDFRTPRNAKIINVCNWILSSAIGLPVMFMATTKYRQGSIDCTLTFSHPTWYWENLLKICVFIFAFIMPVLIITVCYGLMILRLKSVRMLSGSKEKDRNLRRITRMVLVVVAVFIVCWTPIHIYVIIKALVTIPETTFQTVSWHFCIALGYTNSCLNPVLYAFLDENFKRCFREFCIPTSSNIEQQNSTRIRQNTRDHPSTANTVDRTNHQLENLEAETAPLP

On to `O=C(Cc1ccc(Cl)cc1)O[C@@]12CCC(=O)[C@@H]3Oc4c(O)ccc5c4[C@@]31CCN(CC1CC1)C2C5` [Compound 9, 14β-(4′-chlorophenylacetyl)-17-cyclopropylmethyl-7,8-dihydronoroxymorphinone], for which the Emax on MOP [1] was 8.2%; at NOP [3], 19%. Moreover, the Ki – broadly, the dissociation constant of the complex between target and ligand, obtained from inhibition or displacement – on NOP [2] came out at 51.3 ± 14 nM; at MOP [4], 1.78 ± 0.03 nM; at KOP, 3.95 ± 0.59 nM.
For the molecule `O=C(Cc1ccccc1Cl)O[C@@]12CCC(=O)[C@@H]3Oc4c(O)ccc5c4[C@@]31CCN(CC1CC1)C2C5` [Compound 10, 14β-(2′-chlorophenylacetyl)-17-cyclopropylmethyl-7,8-dihydronoroxymorphinone], the Emax on MOP [1] turned out to be 39%; at NOP [3] it was 50%. Moreover, the Ki was determined as 32.6 ± 2.3 nM at NOP [2], 4.66 ± 1.8 nM at MOP [4] and 1.34 ± 0.5 nM at KOP.
On to `O=C(CCc1ccccc1)O[C@@]12CCC(=O)[C@@H]3Oc4c(O)ccc5c4[C@@]31CCN(CC1CC1)C2C5` [Compound 11, 14β-Phenylpropanoyl-17-cyclopropylmethyl-7,8-dihydronoroxymorphinone], for which the Emax was 18% on MOP [1] and 34% on NOP [3]. The Ki on NOP [2] is 14.8 ± 0.94 nM; on MOP [4], 0.86 ± 0.23 nM; at KOP it was 10.5 ± 0.17 nM. The antinociceptive effect entry is given as “full antinociceptive effects” in the series on rhesus monkeys [5] (0.01 mg/kg s.c., rhesus monkeys) and “full antinociceptive effects” with rhesus monkeys [5] (intrathecal 3 μg, monkeys). The “duration of full antinociceptive effects” value with rhesus monkeys [5] (intrathecal 3 μg, monkeys) worked out at 24 h. Also, in the series on rhesus monkeys [5] (s.c. 0.001-0.01 mg/kg, rhesus monkeys), the duration of antinociception is around 24 h. For the same molecule, in the series on rhesus monkeys [5] (s.c. 0.001-0.01 mg/kg, rhesus monkeys, pilot experiments), the “antinociception against acute noxious stimulus (50° C. water)” value is “dose-dependently produced long lasting antinociception”. Besides, the “stimulation of the KOPr” value on KOPr is “no stimulation”. The “self-administration (abuse liability)” value with rhesus monkeys [6] is given as “did not self-administer”. In the series with rhesus monkeys [7], the bradycardia and hypotension result was “no bradycardia and hypotension”. Moreover, the respiratory depression entry with rhesus monkeys [7] is given as “no respiratory depression”. In addition, the scratching responses result in the series on rhesus monkeys [8] is “without eliciting scratching responses”. Further, the signs of sedation result in the series on rhesus monkeys [8] (during test period) is “did not show any signs of sedation”. Further, in series [9] (J113397 pretreatment), the “reversal of 11-induced reversal of thermal hyperalgesia by pretreatment with NOP receptor antagonist J113397” value is “partially reverse”. The “effect on carrageenan-induced thermal hyperalgesia (paw withdrawal latency, anti-hyperalgesic effect)” value in series [9] (intrathecal) was “efficacious and long acting”. Moreover, the “reversal of 11-induced reversal of thermal hyperalgesia by pretreatment with MOP receptor antagonist naltrexone” value in [9] (naltrexone pretreatment) is given as “partially reverse”.
Consider `COc1ccc(CCC(=O)O[C@@]23CCC(=O)[C@@H]4Oc5c(O)ccc6c5[C@@]42CCN(CC2CC2)C3C6)cc1` [Compound 12, 14β-(4′-methoxyphenylpropanoyl)-17-cyclopropylmethyl-7,8-dihydronoroxymorphinone], for which the results for the Ki on NOP [2], on MOP [4] and at KOP were 766 ± 177 nM, 0.91 ± 0.12 nM and 1.96 ± 0.04 nM, respectively. Besides, the “stimulation of the KOPr” value at KOPr is given as “no stimulation”. The Emax at NOP [3] was 52%.
On the same counts, the results for `COc1cccc(CCC(=O)O[C@@]23CCC(=O)[C@@H]4Oc5c(O)ccc6c5[C@@]42CCN(CC2CC2)C3C6)c1` [Compound 13, 14β-(3′-methoxyphenylpropanoyl)-17-cyclopropylmethyl-78-dihydronoroxymorphinone] are 154 ± 11.5 nM, 1.14 ± 0.18 nM, 1.24 ± 0.15 nM, “no stimulation” and 46%.
In the case of `COc1ccccc1CCC(=O)O[C@@]12CCC(=O)[C@@H]3Oc4c(O)ccc5c4[C@@]31CCN(CC1CC1)C2C5` [Compound 14, 14β-(2′-methoxyphenylpropanoyl)-17-cyclopropylmethyl-7,8-dihydronoroxymorphinone], the Ki at NOP [2] turned out to be 120 ± 20.5 nM; at MOP [4] it was 1.67 ± 0.42 nM; on KOP it was 1.24 ± 0.11 nM. Moreover, the “stimulation of the KOPr” value at KOPr is “no stimulation”. Further, on NOP [3], the Emax came to 56%.
On to `O=C(CCc1ccc(Cl)cc1)O[C@@]12CCC(=O)[C@@H]3Oc4c(O)ccc5c4[C@@]31CCN(CC1CC1)C2C5` [Compound 16, 14β-(4′-chlorophenylpropanoyl)-17-cyclopropylmethyl-7,8-dihydronoroxymorphinone], for which the Emax at MOP [1] stood at 21%; at NOP [3], 41%. Besides, the results for the Ki on NOP [2], at MOP [4] and on KOP were 45.2 ± 17.5 nM, 0.54 ± 0.11 nM and 1.34 ± 0.12 nM, respectively. For the same molecule, the “stimulation of the KOPr” value on KOPr was “no stimulation”.
On to `O=C(CCc1cccc(Cl)c1)O[C@@]12CCC(=O)[C@@H]3Oc4c(O)ccc5c4[C@@]31CCN(CC1CC1)C2C5` [Compound 17, 14β-(3′-chlorophenylpropanoyl)-17-cyclopropylmethyl-7,8-dihydronoroxymorphinone], for which the Emax worked out at 26% on MOP [1] and 22% on NOP [3]. Also, the results for the Ki at NOP [2], at MOP [4] and at KOP were 27 ± 4.9 nM, 0.39 ± 0.07 nM and 0.74 ± 0.05 nM, respectively. For the same molecule, the “stimulation of the KOPr” value at KOPr is listed as “no stimulation”.
As for `Cc1ccc(CCC(=O)O[C@@]23CCC(=O)[C@@H]4Oc5c(O)ccc6c5[C@@]42CCN(CC2CC2)C3C6)cc1` [Compound 18, 14β-(4′-methylphenylpropanoyl)-17-cyclopropylmethyl-7,8-dihydronoroxymorphinone], the Emax on MOP [1] worked out at 25%; on NOP [3] it was 63%. Also, the Ki at NOP [2] turned out to be 35.8 ± 1.6 nM; on MOP [4], 0.78 ± 0.22 nM; on KOP it was 1.06 ± 0.4 nM.
On to `Cc1ccccc1CCC(=O)O[C@@]12CCC(=O)[C@@H]3Oc4c(O)ccc5c4[C@@]31CCN(CC1CC1)C2C5` [Compound 19, 14β-(2′-methylphenylpropanoyl)-17-cyclopropylmethyl-7,8-dihydronoroxymorphinone], for which the Emax on MOP [1] was found to be 48%; at NOP [3] it was 33%. Further, the Ki on NOP [2] stood at 12.1 ± 2.7 nM; at MOP [4] it was 0.56 ± 0.11 nM; on KOP, 0.64 ± 0.1 nM.
